Laboratory results as given in patent US3950525A, “Relaxation of smooth muscle in a mammal” (Pfizer Inc., priority 1975, dated 1976).
Where a name gives a salt, the structure may show the parent alone.

Test system: collagen induced platelet aggregation
Assay: In Vitro Inhibition of Platelet Aggregation (collagen induced, rabbit platelet-rich plasma)
Type: cell-based
Details: Oryctolagus cuniculus, 10 min; for inhibition at 60 µM: 6 × 10^^-5 mol./l.; for inhibition at 6 µM: 6 × 10^^-6 mol./l.; for inhibition at 600 µM: 6 × 10^^-4 mol./l.
Experimental: The ability of the compounds of the present invention to inhibit platelet aggregation in vitro is measured according to the method of Born, et al., J. Physiol., 168, 178 (1963) and comprises the following procedure: Anesthetized male rabbits are bled from a carotid artery into plastic centrifuge tubes containing 0.1 volume 3% sodium citrate. Platelet-rich plasma is separated by centrifugation at 100 G for 10 minutes at 20° C. […] After 10 minutes of incubation with the platelet-rich plasma at room temperature, collagen, a protein known to cause platelet aggregation, is added (0.27 ml. collagen/4 ml. plasma) and changes in the optical density are followed with a Spectronic 20 colorimeter attached to a Houston Instrument TY Recorder. Platelet aggregation is indicated by a decrease in optical density. The relative potency of the compounds of the present invention are thus rated on their ability to inhibit (percent) collagen induced platelet aggregation.

Row | SMILES | inhibition at 60 µM | inhibition at 6 µM | inhibition at 600 µM
1 | CCN(CC)c1cc(-c2cccc(N)c2)ncn1 [Ar=3-NH2C6H4; R1=C2H5; R2=C2H5; R3=H, 4-Diethylamino-6-(m-aminophenyl)pyrimidine dihydrochloride] | 67% | 41% | –
2 | CCCCNc1cc(-c2ccccc2)ncn1 [Ar=C6H5; R1=n-C4H9; R2=H; R3=H] | 42% | 30% | –
3 | CCCN(CCC)c1ncnc(-c2ccccc2)c1CC [Ar=C6H5; R1=n-C3H7; R2=n-C3H7; R3=C2H5] | – | 5% | –
4 | CN(C)c1cc(-c2ccccc2)ncn1 [Ar=C6H5; R1=CH3; R2=CH3; R3=H] | 55% | – | 99%
5 | CNc1cc(-c2ccccc2)ncn1 [Ar=C6H5; R1=CH3; R2=H; R3=H] | 66% | – | 99%
6 | CCCc1c(-c2ccccc2)ncnc1N(CC)CC [Ar=C6H5; R1=C2H5; R2=C2H5; R3=n-C3H7] | – | 55% | –
7 | CCN(CC)c1ncnc(-c2ccccc2)c1C(C)C [Ar=C6H5; R1=C2H5; R2=C2H5; R3=i-C3H7] | – | 63% | –
8 | Nc1cc(-c2cccs2)ncn1 [Ar=2-thienyl; R1=H; R2=H; R3=H] | 9% | – | 91%
9 | CCCCN(CCCC)c1cc(-c2cccc(NC(C)=O)c2)ncn1 | – | – | 15%
10 | CN(C)c1cc(-c2cccs2)ncn1 [Ar=2-thienyl; R1=CH3; R2=CH3; R3=H] | 82% | 59% | 94%
11 | CCNc1cc(-c2cccs2)ncn1 [Ar=2-thienyl; R1=C2H5; R2=H; R3=H] | 75% | 35% | 99%
12 | CCN(CCO)c1cc(-c2ccc(OC)cc2)ncn1 | 71% | 55% | 90%
13 | CCCc1c(-c2ccccc2)ncnc1N(C)C [Ar=C6H5; R1=CH3; R2=CH3; R3=n-C3H7] | – | 40% | –
14 | CCCN(CCC)c1cc(-c2ccccc2)ncn1 [Ar=C6H5; R1=n-C3H7; R2=n-C3H7; R3=H] | 49% | 41% | 83%
15 | CCN(CC)c1cc(-c2cccc(N(C)C)c2)ncn1 [Ar=3-(CH3)2NC6H4; R1=C2H5; R2=C2H5; R3=H, 4-Diethylamino-6-(m-dimethylaminophenyl)pyrimidine hydrochloride] | 95% | 85% | 89%
16 | CCN(CC)c1ncnc(-c2ccccc2)c1C [Ar=C6H5; R1=C2H5; R2=C2H5; R3=CH3, 4-diethylamino-5-methyl-6-phenylpyrimidine] | – | 80% | –
17 | CCN(CC)c1cc(-c2ccc(Cl)cc2)ncn1 [Ar=4-ClC6H4; R1=C2H5; R2=C2H5; R3=H, 4-Diethylamino-6-(p-chlorophenyl)pyrimidine hydrochloride] | 73% | 32% | –
18 | CCCC(=O)Nc1cccc(-c2cc(N(CC)CC)ncn2)c1 | 8% | – | 36%
19 | CNc1cc(-c2ccc(OC)cc2)ncn1 [Ar=4-CH3OC6H4; R1=H; R2=CH3; R3=H] | 13% | – | 76%
20 | C=CCN(CC=C)c1cc(-c2cccs2)ncn1 | 50% | 40% | –

Row | SMILES | inhibition at 60 µM | inhibition at 6 µM | inhibition at 600 µM
21 | CC(=O)Nc1cccc(-c2cc(N3CCCC3)ncn2)c1 [Ar=3-CH3CONHC6H4; R1,R2=--(CH2)4--; R3=H] | 30% | – | 94%
22 | c1ccc(-c2cc(N3CCCCCC3)ncn2)cc1 [Ar=C6H5; R1,R2=--(CH2)6--; R3=H, 4-(1-Hexahydroazepinyl)-6-phenylpyrimidine hydrochloride] | 83% | 29% | 99%
23 | CCCN(CCC)c1cc(-c2cccc(NS(C)(=O)=O)c2)ncn1 | 3% | – | 94%
24 | CC(C)CN(CC(C)C)c1cc(-c2ccccc2)ncn1 [Ar=C6H5; R1=i-C4H9; R2=i-C4H9; R3=H] | 24% | 10% | 35%
25 | CN(C)c1cc(-c2ccc(Cl)cc2)ncn1 [Ar=4-ClC6H4; R1=CH3; R2=CH3; R3=H, 4-Dimethylamino-6-(p-chlorophenyl)pyrimidine hydrochloride] | 58% | 7% | 99%
26 | COc1ccc(-c2cc(N3CCN(C)CC3)ncn2)cc1 | 55% | 14% | 85%
27 | CC(=O)Nc1cccc(-c2cc(N(C)C)ncn2)c1 [Ar=3-CH3CONHC6H4; R1=CH3; R2=CH3; R3=H] | 13% | – | 93%
28 | c1ccc(-c2cc(N3CCCCC3)ncn2)cc1 [Ar=C6H5; R1,R2=--(CH2)5--; R3=H, 4-(1-Piperidyl)-6-phenylpyrimidine hydrochloride] | 61% | 60% | 94%
29 | CCc1c(-c2ccccc2)ncnc1N(C)C [Ar=C6H5; R1=CH3; R2=CH3; R3=C2H5] | – | 50% | –
30 | CN1CCN(c2cc(-c3ccccc3)ncn2)CC1 [4-(4-Methyl-1-piperazinyl)-6-phenylpyrimidine dihydrochloride] | 99% | 59% | 99%
31 | CCCN(CC)c1cc(-c2ccccc2)ncn1 [Ar=C6H5; R1=n-C3H7; R2=C2H5; R3=H, 4-(ethyl-n-propylamino)-6-phenylpyrimidine] | 86% | 79% | 99%
32 | CCCN(CCC)c1cc(-c2ccc(Cl)cc2)ncn1 [Ar=4-ClC6H4; R1=n-C3H7; R2=n-C3H7; R3=H, 4-Di(n-propyl)amino-6-(p-chlorophenyl)pyrimidine hydrochloride] | 70% | – | 84%
33 | FC(F)(F)CNc1cc(-c2cccs2)ncn1 [Ar=2-thienyl; R1=CF3CH2; R2=H; R3=H] | 81% | 14% | –
34 | Nc1cc(-c2ccccc2)ncn1 [Ar=C6H5; R1=H; R2=H; R3=H, 4-amino-6-phenylpyrimidine] | 65% | – | 75%
35 | CCCN(C)c1cc(-c2ccccc2)ncn1 [Ar=C6H5; R1=n-C3H7; R2=CH3; R3=H] | 47% | 39% | –
36 | COc1ccc(-c2cc(N)ncn2)cc1 [Ar=4-CH3OC6H4; R1=H; R2=H; R3=H] | 24% | 3% | 72%
37 | OCCN(CCO)c1cc(-c2ccccc2)ncn1 [Ar=C6H5; R1=HO(CH2)2; R2=HO(CH2)2; R3=H, 4-[Bis(2-hydroxyethyl)amino]-6-phenylpyrimidine hydrochloride] | 27% | – | 84%
38 | CCN(CC(F)(F)F)c1cc(-c2cccs2)ncn1 [Ar=2-thienyl; R1=CF3CH2; R2=C2H5; R3=H] | 65% | 58% | 75%
39 | CC(C)Nc1cc(-c2ccccc2)ncn1 [Ar=C6H5; R1=i-C3H7; R2=H; R3=H] | 88% | 29% | –
40 | CCCN(CCC)c1cc(-c2cccc(C(F)(F)F)c2)ncn1 [Ar=3-CF3C6H4; R1=n-C3H7; R2=n-C3H7; R3=H, 4-Di(n-propyl)amino-6-(m-trifluoromethylphenyl)pyrimidine hydrochloride] | 50% | – | 99%
